# Test results published in patent publication US12098139B2, “Chemokine receptor modulators and uses thereof” (RAPT Therapeutics, Inc., priority 2018, dated 2024).
# Biological target: T1, hCCR4 (Chem5-hCCR4 cells) (Homo sapiens, UniProt P51679)
# T1 sequence (P51679 1-360): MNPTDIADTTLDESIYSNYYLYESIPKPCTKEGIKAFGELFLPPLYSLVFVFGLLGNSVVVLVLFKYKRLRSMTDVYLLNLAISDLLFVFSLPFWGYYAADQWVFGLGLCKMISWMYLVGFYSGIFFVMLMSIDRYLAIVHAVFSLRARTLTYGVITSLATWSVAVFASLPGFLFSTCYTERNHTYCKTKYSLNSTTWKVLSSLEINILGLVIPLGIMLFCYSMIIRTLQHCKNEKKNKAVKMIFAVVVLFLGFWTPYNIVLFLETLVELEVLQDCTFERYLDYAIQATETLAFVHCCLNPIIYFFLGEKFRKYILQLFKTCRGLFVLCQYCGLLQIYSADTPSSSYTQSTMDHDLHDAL
# Experiment: Calcium flux assay (CCL22-stimulated, FLIPR Calcium 6 dye)
# Format: cell-based
# Conditions: Table 3, CCL22 1.5 nM, read-out: Potency (IC50)
# Protocol: Calcium Flux Assay. Compounds were evaluated in a calcium flux assay substantially performed as follows. Chem5-hCCR4 cells (EMD Millipore, Hayward, CA; HTS009C) were cultured under standard conditions and frozen in aliquots of 10×10^6 cells/mL. The day prior to compound testing, a vial was rapidly thawed and pipetted into 20 mL media (DMEM+10% FBS+1% Pen-Strep+1% L-glutamine). Cells were harvested by centrifugation and re-suspended in fresh culture medium. 25 μL of cell suspension was seeded into 384-well plates (Corning, Tewksbury, MA; CellBind with black wall/clear bottom). The plates were centrifuged at 300 g for 10 seconds and incubated overnight at 37° C. and 5% CO2. The day of compound testing, media was removed from the plates and 25 μL serum free media was added to each well. Plates were returned to the incubator for 2 h. 25 μL assay buffer (Hank's balanced salt solution+20 mM HEPES pH 7.4) containing FLIPR Calcium 6 dye (Molecular Devices, Sunnyvale, CA; #R8191) and probenecid (2.5 mM) was added to each well and incubated at 37° C. and 5% CO2 for 2 h. Compounds in DMSO were added to the plates using an HP D300e digital dispenser, and all wells were normalized to contain 0.25 μL (0.5%) DMSO. Plates were incubated for 1 hour at 37° C. and 5% CO2. CCL22 (Peprotech; Rockyhill, NJ) was diluted in assay buffer containing 0.1% BSA to 7.5 nM (corresponding to 5×EC80 of 1.5 nM).
# Assay plates and working solution of CCL22 were transferred to the FlexStation plate reader (Molecular Devices) at 37° C. for 5 min of equilibration. Fluorescence recordings at 485 excitation/525 emission were performed at 2.5 second intervals. At t=16 seconds, 12.5 μL of CCL22 solution was added to each well and reads continued for 30 seconds at 2.5 second intervals. The minimum fluorescence (Fmin) was calculated by averaging the reads prior to ligand addition and the change in fluorescence (ΔF) was calculated by subtracting the Fmin from the average of the reads following ligand addition. The response ΔF/Fmin was plotted as a function of the compound concentration and the IC50 values were determined by non-linear regression analysis using a 4-parameter fit in either PRISM software (GraphPad; La Jolla, CA) or Dotmatics Browser.
row,SMILES,IC50
1,"C[C@@H](Nc1nc(N2CC([C@H]3CCCN(CCO)C3)C2)ncc1C(=O)O)c1ccc(Cl)cc1Cl [Example 33, 4-(((R)-1-(2,4-dichlorophenyl)ethyl)amino)-2-(3-((R)-1-(2-hydroxyethyl)piperidin-3-yl)azetidin-1-yl)pyrimidine-5-carboxylic acid]",> 500 nM
2,"C[C@@H](Nc1cnc(C#N)c(N2CC([C@H]3CCCN([C@H]4C[C@@H](C(=O)O)C4)C3)C2)n1)c1ccc(Cl)cc1Cl [Example 4, (1S,3s)-3-((R)-3-(1-(3-cyano-6-(((R)-1-(2,4-dichlorophenyl)ethyl)amino)pyrazin-2-yl)azetidin-3-yl)piperidin-1-yl)cyclobutane-1-carboxylic acid]",> 500 nM
3,"C[C@@H](Nc1nc(N2CC([C@H]3CCCN(C4CCCC4C(=O)O)C3)C2)cnc1C#N)c1ccc(Cl)cc1Cl (stereo partly drawn) [Example 6, 2-((R)-3-(1-(5-cyano-6-(((R)-1-(2,4-dichlorophenyl)ethyl)amino)pyrazin-2-yl)azetidin-3-yl)piperidin-1-yl)cyclopentane-1-carboxylic acid]",100 to 500 nM
4,"C[C@@H](Nc1nc(N2CC([C@H]3CCCN(CCO)C3)C2)nc2ccccc12)c1ccc(Cl)cc1Cl [Example 26, 2-((R)-3-(1-(4-(((R)-1-(2,4-dichlorophenyl)ethyl)amino)quinazolin-2-yl)azetidin-3-yl)piperidin-1-yl)ethan-1-ol]",< 100 nM
5,"C[C@@H](Nc1nc(N2CC([C@H]3CCCN(CCO)C3)C2)ncc1F)c1ccc(Cl)cc1Cl [Example 48, 2-((R)-3-(1-(4-(((R)-1-(2,4-dichlorophenyl)ethyl)amino)-5-fluoropyrimidin-2-yl)azetidin-3-yl)piperidin-1-yl)ethan-1-ol]",100 to 500 nM
6,"Cc1cnc(N2CC([C@H]3CCCN(C4CC(CO)C4)C3)C2)nc1N[C@H](C)c1ccc(Cl)cc1Cl (stereo partly drawn) [Example 18, (3-((R)-3-(1-(4-(((R)-1-(2,4-dichlorophenyl)ethyl)amino)-5-methylpyrimidin-2-yl)azetidin-3-yl)piperidin-1-yl)cyclobutyl)methanol]",< 100 nM
7,"C[C@@H](Nc1nc(N2CC([C@H]3CCCN([C@H]4C[C@](C)(C(=O)O)C4)C3)C2)ncc1C(F)(F)F)c1ccc(Cl)cc1Cl [Example 39, (1R,3r)-3-((R)-3-(1-(4-(((R)-1-(2,4-dichlorophenyl)ethyl)amino)-5-(trifluoromethyl)pyrimidin-2-yl)azetidin-3-yl)piperidin-1-yl)-1-methylcyclobutane-1-carboxylic acid]",< 100 nM
8,"C[C@@H](Nc1nc(N2CC([C@H]3CCCN(CCO)C3)C2)ncc1Cl)c1ccc(Cl)cc1Cl [Example 10, 2-((R)-3-(1-(5-chloro-4-(((R)-1-(2,4-dichlorophenyl)ethyl)amino)pyrimidin-2-yl)azetidin-3-yl)piperidin-1-yl)ethan-1-ol]",< 100 nM
9,"C[C@@H](Nc1nc(N2CC([C@H]3CCCN([C@H]4C[C@](C)(C(=O)O)C4)C3)C2)ncc1F)c1ccc(Cl)cc1Cl [Example 47, (1R,3r)-3-((R)-3-(1-(4-(((R)-1-(2,4-dichlorophenyl)ethyl)amino)-5-fluoropyrimidin-2-yl)azetidin-3-yl)piperidin-1-yl)-1-methylcyclobutane-1-carboxylic acid]",100 to 500 nM
10,"CCOC(=O)c1cnc(N2CC([C@H]3CCCN(CCO)C3)C2)nc1N[C@H](C)c1ccc(Cl)cc1Cl [Example 32, ethyl 4-(((R)-1-(2,4-dichlorophenyl)ethyl)amino)-2-(3-((R)-1-(2-hydroxyethyl)piperidin-3-yl)azetidin-1-yl)pyrimidine-5-carboxylate]",< 100 nM
11,"C[C@@H](Nc1cncc(N2CC([C@H]3CCCN(CCO)C3)C2)n1)c1ccc(Cl)cc1Cl [Example 2, 2-((R)-3-(1-(6-(((R)-1-(2,4-dichlorophenyl)ethyl)amino)pyrazin-2-yl)azetidin-3-yl)piperidin-1-yl)ethan-1-ol]",100 to 500 nM
12,"C[C@@H](Nc1nc(N2CC([C@H]3CCCN(CCO)C3)C2)ncc1Cl)c1ccc(F)cc1Cl [Example 44, 2-((R)-3-(1-(5-chloro-4-(((R)-1-(2-chloro-4-fluorophenyl)ethyl)amino)pyrimidin-2-yl)azetidin-3-yl)piperidin-1-yl)ethan-1-ol]",100 to 500 nM
13,"C[C@@H](Nc1nc(N2CC([C@H]3CCCN(CCO)C3)C2)ncc1C(F)(F)F)c1ccc(Cl)cc1Cl [Example 15, 2-((R)-3-(1-(4-(((R)-1-(2,4-dichlorophenyl)ethyl)amino)-5-(trifluoromethyl)pyrimidin-2-yl)azetidin-3-yl)piperidin-1-yl)ethan-1-ol]",> 500 nM
14,"Cc1nc(N2CC([C@H]3CCCN([C@H]4C[C@@H](C(=O)O)C4)C3)C2)nc(N[C@H](C)c2ccc(Cl)cc2Cl)c1C [Example 30, (1S,3s)-3-((R)-3-(1-(4-(((R)-1-(2,4-dichlorophenyl)ethyl)amino)-5,6-dimethylpyrimidin-2-yl)azetidin-3-yl)piperidin-1-yl)cyclobutane-1-carboxylic acid]",100 to 500 nM
15,"Cc1cnc(N2CC([C@H]3CCCN([C@H]4C[C@](C)(C(=O)O)C4)C3)C2)nc1N[C@H](C)c1ccc(Cl)cc1Cl [Example 36, (1R,3r)-3-((R)-3-(1-(4-(((R)-1-(2,4-dichlorophenyl)ethyl)amino)-5-methylpyrimidin-2-yl)azetidin-3-yl)piperidin-1-yl)-1-methylcyclobutane-1-carboxylic acid]",100 to 500 nM

# Same assay, conditions: Table 5, CCL22 1.5 nM, read-out: Potency (IC50)
row,SMILES,IC50
1,"C[C@@H](Nc1nc(N2CC([C@H]3CCCN(CCO)C3)C2)nc2sccc12)c1ccc(Cl)cc1Cl [Example 61, 2-[(3R)-3-[1-[4-[[(1R)-1-(2,4-dichlorophenyl)ethyl]amino]thieno[2,3-d]pyrimidin-2-yl]azetidin-3-yl]-1-piperidyl]ethanol; 2,2,2-trifluoroacetic acid]",< 100 nM
2,"C[C@@H](Nc1nc(N2CC(C3CCCN([C@H]4C[C@@H](O)C4)C3C(=O)O)C2)ncc1Cl)c1ccc(Cl)cc1Cl (stereo partly drawn) [Example 87, 3-[1-[5-chloro-4-[[(1R)-1-(2,4-dichlorophenyl)ethyl]amino]pyrimidin-2-yl]azetidin-3-yl]-1-(3-hydroxycyclobutyl)piperidine-2-carboxylic acid; 2,2,2-trifluoroacetic acid]",< 100 nM
3,"CCc1nc(N2CC([C@H]3CCCN(C4CC(C)(C(=O)O)C4)C3)C2)nc(N[C@H](C)c2ccc(Cl)cc2Cl)c1Cl (single isomer, unassigned) [Example 77]",< 100 nM
4,"C[C@@H](Nc1nc(N2CC([C@H]3CCCN(C4CC(C)(C(=O)O)C4)C3)C2)nc2scnc12)c1ccc(Cl)cc1Cl (single isomer, unassigned) [Example 71, trifluoroacetic acid]",< 100 nM
5,"CC(=O)c1cnc(N2CC([C@H]3CCCN(C4CC(C)(C(=O)O)C4)C3)C2)nc1N[C@H](C)c1ccc(Cl)cc1Cl (single isomer, unassigned) [Example 78]",< 100 nM
6,"C[C@@H](Nc1nc(N2CC([C@H]3CCCN(C4CC(C)(C(=O)O)C4)C3)C2)nc(CF)c1Cl)c1ccc(Cl)cc1Cl (single isomer, unassigned) [Example 89]",< 100 nM
7,"CCc1cc(N[C@H](C)c2ccc(Cl)cc2Cl)nc(N2CC([C@H]3CCCN(C4CC(C)(C(=O)O)C4)C3)C2)n1 (single isomer, unassigned) [Example 92]",< 100 nM
